Test results as given in ChEMBL document CHEMBL5614459, “Conformationally Constrained Isoquinolinones as Orally Efficacious Hepatitis B Capsid Assembly Modulators” (ACS Med Chem Lett, 2024).

Assays:
[1] = molecular target: Cytochrome P450 2D6 (Homo sapiens, UniProt P10635); assay: Inhibition of CYP2D6 (unknown origin); assay type: ADME
[2] = molecular target: T1, Cytochrome P450 2B6 (Homo sapiens, UniProt P20813); assay: Inhibition of CYP2B6 (unknown origin); assay type: ADME
T1 sequence (P20813 whole entry): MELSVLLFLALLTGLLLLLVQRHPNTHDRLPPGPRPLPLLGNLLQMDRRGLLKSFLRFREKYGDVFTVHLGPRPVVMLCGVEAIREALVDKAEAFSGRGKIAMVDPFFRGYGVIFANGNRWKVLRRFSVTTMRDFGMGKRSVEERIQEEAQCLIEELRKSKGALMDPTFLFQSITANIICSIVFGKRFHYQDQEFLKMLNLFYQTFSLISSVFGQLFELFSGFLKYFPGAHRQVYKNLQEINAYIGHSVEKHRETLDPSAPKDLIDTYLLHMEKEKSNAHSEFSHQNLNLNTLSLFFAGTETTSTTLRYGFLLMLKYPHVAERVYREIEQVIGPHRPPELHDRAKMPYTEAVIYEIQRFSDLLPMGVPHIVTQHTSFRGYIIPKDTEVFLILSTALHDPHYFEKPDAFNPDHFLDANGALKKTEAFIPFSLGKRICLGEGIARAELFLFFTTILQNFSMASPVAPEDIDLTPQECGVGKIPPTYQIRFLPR

[3] = system: Hepatitis B virus; assay: Antiviral activity against Hepatitis B virus genotype D infected in HepDE19 cells assessed as inhibition of viral replication by measuring decrease in intracellular rcDNA level by bDNA assay; assay type: functional, organism-based
[4] = molecular target: Cytochrome P450 3A4 (Homo sapiens, UniProt P08684); assay: Inhibition of CYP3A4 (unknown origin); assay type: ADME
Chain of Cytochrome P450 3A4 (P08684 whole entry): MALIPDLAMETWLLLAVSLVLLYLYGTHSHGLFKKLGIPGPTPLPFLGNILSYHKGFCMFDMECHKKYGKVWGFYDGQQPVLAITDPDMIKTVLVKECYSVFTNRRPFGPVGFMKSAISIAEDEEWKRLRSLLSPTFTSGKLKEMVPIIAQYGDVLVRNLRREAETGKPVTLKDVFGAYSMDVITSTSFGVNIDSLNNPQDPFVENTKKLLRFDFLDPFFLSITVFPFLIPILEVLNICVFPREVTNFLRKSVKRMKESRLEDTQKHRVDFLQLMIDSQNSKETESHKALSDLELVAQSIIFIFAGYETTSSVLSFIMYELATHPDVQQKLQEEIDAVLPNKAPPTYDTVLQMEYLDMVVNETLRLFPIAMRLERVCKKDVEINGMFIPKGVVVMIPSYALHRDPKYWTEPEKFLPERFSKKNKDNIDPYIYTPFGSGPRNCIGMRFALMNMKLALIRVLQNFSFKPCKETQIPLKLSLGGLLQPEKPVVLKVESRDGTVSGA

[5] = molecular target: Cytochrome P450 2C19 (Homo sapiens, UniProt P33261); assay: Inhibition of CYP2C19 (unknown origin); assay type: ADME
Chain of Cytochrome P450 2C19 (P33261 whole entry): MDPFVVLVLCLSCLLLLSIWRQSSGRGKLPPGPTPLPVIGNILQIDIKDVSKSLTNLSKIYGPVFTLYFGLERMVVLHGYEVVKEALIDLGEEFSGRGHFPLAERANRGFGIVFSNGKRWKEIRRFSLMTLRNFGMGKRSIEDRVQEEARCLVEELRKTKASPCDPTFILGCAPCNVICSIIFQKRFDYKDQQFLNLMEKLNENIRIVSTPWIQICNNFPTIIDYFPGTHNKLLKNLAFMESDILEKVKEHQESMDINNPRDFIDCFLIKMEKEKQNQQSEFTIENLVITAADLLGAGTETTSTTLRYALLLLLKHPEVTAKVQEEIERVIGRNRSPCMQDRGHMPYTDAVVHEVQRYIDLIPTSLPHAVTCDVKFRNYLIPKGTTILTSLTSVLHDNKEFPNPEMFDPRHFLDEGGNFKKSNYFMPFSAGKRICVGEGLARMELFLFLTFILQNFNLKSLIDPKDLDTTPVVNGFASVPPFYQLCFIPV

[6] = Cytotoxicity against human HepDE19 cells by CellTiter-Glo assay; assay type: toxicity, cell-based
[7] = Selectivity index, ratio of CC50 for cytotoxicity against human HepDE19 cells to EC50 for antiviral activity against Hepatitis B virus genotype D infected in HepDE19 cells; assay type: toxicity, cell-based; conditions: read-out: Ratio CC50/EC50
[8] = Intrinsic clearance in mouse liver microsomes; assay type: ADME, Microsome; conditions: read-out: CLH
[9] = Intrinsic clearance in human liver microsomes; assay type: ADME, Microsome; conditions: read-out: CLH
[10] = Cmax in CD-1 mouse at 10 mg/kg, po; assay type: ADME, organism-based; conditions: in vivo
[11] = Half life in CD-1 mouse at 10 mg/kg, po; assay type: ADME, organism-based; conditions: in vivo
[12] = Drug uptake in CD-1 mouse liver at 10 mg/kg, po or 2 mg/kg, iv measured after 24 hrs; assay type: ADME, organism-based; conditions: read-out: Drug uptake
[13] = AUC(last) in CD-1 mouse at 10 mg/kg, po; assay type: ADME, organism-based; conditions: in vivo
[14] = Hepatitis B virus, genotype D, HepDE19

Chain of Cytochrome P450 2D6 (P10635 whole entry): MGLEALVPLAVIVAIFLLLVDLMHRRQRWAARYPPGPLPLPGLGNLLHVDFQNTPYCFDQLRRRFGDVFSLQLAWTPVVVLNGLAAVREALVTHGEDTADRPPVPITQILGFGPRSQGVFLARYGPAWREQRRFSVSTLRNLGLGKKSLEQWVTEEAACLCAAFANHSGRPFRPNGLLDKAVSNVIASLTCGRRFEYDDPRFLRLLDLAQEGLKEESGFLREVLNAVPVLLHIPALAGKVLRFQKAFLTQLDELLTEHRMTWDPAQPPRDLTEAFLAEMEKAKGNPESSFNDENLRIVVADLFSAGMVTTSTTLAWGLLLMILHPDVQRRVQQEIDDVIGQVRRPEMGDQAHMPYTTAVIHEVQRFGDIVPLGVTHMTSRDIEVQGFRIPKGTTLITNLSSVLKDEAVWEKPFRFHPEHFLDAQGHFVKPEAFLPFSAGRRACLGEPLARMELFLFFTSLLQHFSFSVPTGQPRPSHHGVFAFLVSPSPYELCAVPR

EC50 [3, 14] [nM] | Structure (SMILES) | CC50 [6] [nM] | selectivity ratio [7] | other results
– | CN(C(=O)Nc1ccc(F)c(Cl)c1)C1CCCc2[nH]c(=O)c3cc(F)c(F)cc3c21 (stereo in doubt; 8) | – | – | IC50 [1]: 4300 nM; IC50 [2]: < 10000 nM; EC50 ([3]; hepde19): 12 nM; IC50 [4]: < 10000 nM; IC50 [5]: < 10000 nM
470 | CC(C)CN(C(=O)Nc1ccc(F)c(Cl)c1)C1CCCc2[nH]c(=O)c3ccccc3c21 (racemic) | > 10000 | > 1500 | –
18 | CN(C(=O)Nc1cc(F)c(F)c(F)c1)[C@@H]1COCc2[nH]c(=O)c3cc(F)c(F)cc3c21 | > 10000 | > 1500 | –
– | CN(C(=O)Nc1ccc(F)c(Cl)c1)C1CCCc2[nH]c(=O)c3ccccc3c21 (stereo in doubt; 2b) | – | – | EC50 ([3]; hepde19): 45 nM
510 | CN(C(=O)Nc1ccc(F)c(Cl)c1)C1CCCc2[nH]c(=O)c3cc(F)cc(F)c3c21 (racemic) | > 10000 | > 1500 | –
33 | CN(C(=O)Nc1ccccc1)[C@@H]1COCc2[nH]c(=O)c3cc(F)c(F)cc3c21 | > 10000 | > 1500 | –
11 | CN(C(=O)c1cc2cccc(F)c2[nH]1)C1COCc2[nH]c(=O)c3cc(F)c(F)cc3c21 (stereo not given) | > 10000 | > 1500 | microsomal CLint [8]: 57 µL/min/mg; microsomal CLint [9]: 81 µL/min/mg
5 | CN(C(=O)c1cc2cc(F)c(F)c(F)c2[nH]1)[C@@H]1COCc2[nH]c(=O)c3cc(F)c(F)cc3c21 | > 10000 | > 1500 | Cmax [10]: 1080 ng/mL; microsomal CLint [8]: 20 µL/min/mg; half-life [11]: 10.8 h; concentration at 24 h [12]: 3230 ng/g; AUC(0-t) [13]: 15900 ng·h/mL; microsomal CLint [9]: 31 µL/min/mg
87 | CN(C(=O)Nc1ccc(F)c(Cl)c1)C1CCc2[nH]c(=O)c3ccccc3c21 (racemic) | > 10000 | > 1500 | –
31 | CN(C(=O)Nc1ccc(F)c(Cl)c1)C1CCCc2[nH]c(=O)c3cc(F)ccc3c21 (racemic) | > 10000 | > 1500 | –
9 | CN(C(=O)c1cc2ccccc2[nH]1)[C@@H]1COCc2[nH]c(=O)c3cc(F)c(F)cc3c21 | > 10000 | > 1500 | microsomal CLint [8]: 70 µL/min/mg; microsomal CLint [9]: 91 µL/min/mg
7 | CC(C)CN(C(=O)Nc1ccc(F)c(Cl)c1)[C@@H]1CCc2[nH]c(=O)c3ccccc3c21 | > 10000 | > 1500 | –
1360 | CN(C(=O)Nc1ccc(F)c(Cl)c1)[C@@H]1CN(CCO)Cc2[nH]c(=O)c3cc(F)c(F)cc3c21 | > 10000 | > 1500 | –
– | CN(C(=O)Nc1ccc(F)c(Cl)c1)C1CCCc2[nH]c(=O)c3cc(F)c(F)cc3c21 (stereo in doubt) | – | – | EC50 ([3]; hepde19): 1030 nM
